How the values were obtained:
[1] = target: T1, Glycogen phosphorylase, muscle form (Oryctolagus cuniculus, UniProt P00489); assay: Inhibition of rabbit muscle glycogen phosphorylase b
T1 sequence (P00489 whole entry): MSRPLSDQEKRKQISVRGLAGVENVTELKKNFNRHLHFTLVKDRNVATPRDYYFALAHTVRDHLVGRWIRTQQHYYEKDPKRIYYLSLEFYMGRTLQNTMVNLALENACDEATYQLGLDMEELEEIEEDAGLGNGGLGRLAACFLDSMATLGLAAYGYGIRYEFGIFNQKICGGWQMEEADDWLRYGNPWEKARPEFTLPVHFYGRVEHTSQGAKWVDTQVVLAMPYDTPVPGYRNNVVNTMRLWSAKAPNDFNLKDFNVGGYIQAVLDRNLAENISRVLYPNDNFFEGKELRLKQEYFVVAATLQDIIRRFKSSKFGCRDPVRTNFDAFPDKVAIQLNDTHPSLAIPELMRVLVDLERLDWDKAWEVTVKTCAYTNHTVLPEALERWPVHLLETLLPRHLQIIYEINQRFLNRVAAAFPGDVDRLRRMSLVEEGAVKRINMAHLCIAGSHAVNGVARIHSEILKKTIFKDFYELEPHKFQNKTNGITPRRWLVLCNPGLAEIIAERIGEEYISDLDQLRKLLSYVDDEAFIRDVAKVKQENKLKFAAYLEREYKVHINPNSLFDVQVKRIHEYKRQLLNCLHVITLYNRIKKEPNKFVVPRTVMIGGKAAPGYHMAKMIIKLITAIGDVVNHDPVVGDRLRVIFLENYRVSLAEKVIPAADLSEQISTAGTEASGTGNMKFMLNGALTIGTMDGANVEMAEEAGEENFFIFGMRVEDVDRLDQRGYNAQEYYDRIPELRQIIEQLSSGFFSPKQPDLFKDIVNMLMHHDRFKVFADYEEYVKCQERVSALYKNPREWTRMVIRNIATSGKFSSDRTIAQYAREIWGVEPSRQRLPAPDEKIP

[2] = target: T1, Glycogen phosphorylase, muscle form; assay: Inhibition of rabbit muscle glycogen phosphorylase b by cheng-prusoff equation

## O=C(N[C@@H]1O[C@H](CO)[C@@H](O)[C@H](O)[C@H]1O)c1ccc2c(c1)OCCO2
[1]
  IC50: 630 µM
[2]
  Ki: 252 µM

## O=C(N[C@@H]1O[C@H](CO)[C@@H](O)[C@H](O)[C@H]1O)[C@@H]1COc2ccccc2O1
[1]
  IC50: 300 µM
[2]
  Ki: 120 µM

## COc1cc(C(=O)N[C@@H]2O[C@H](CO)[C@@H](O)[C@H](O)[C@H]2O)cc2c1OCCO2
[1]
  IC50: 580 µM
[2]
  Ki: 232 µM

## O=C(N[C@@H]1O[C@H](CO)[C@@H](O)[C@H](O)[C@H]1O)c1cc(Br)c2c(c1)OCCO2
[1]
  IC50: 670 µM
[2]
  Ki: 268 µM

## O=C(N[C@@H]1O[C@H](CO)[C@@H](O)[C@H](O)[C@H]1O)[C@H]1COc2ccccc2O1
[1]
  IC50: 320 µM
[2]
  Ki: 128 µM

## O=C(N[C@@H]1O[C@H](CO)[C@@H](O)[C@H](O)[C@H]1O)C1=COc2ccccc2O1
[1]
  IC50: 125 µM
[2]
  Ki: 85 µM

Source: ChEMBL document CHEMBL1152573, “Synthesis and glycogen phosphorylase inhibitory activity of N-(beta-D-glucopyranosyl)amides possessing 1,4-benzodioxane moiety” (Bioorg Med Chem, 2009)
